The results in this text go back to BindingDB's records for patent US20250214942 (University ff Texas System, 2025).

Structures are written as SMILES.

The assay has as its target T1, Receptor-interacting serine/threonine-protein kinase 1 (Homo sapiens, UniProt Q13546).
T1 sequence (Q13546 whole entry): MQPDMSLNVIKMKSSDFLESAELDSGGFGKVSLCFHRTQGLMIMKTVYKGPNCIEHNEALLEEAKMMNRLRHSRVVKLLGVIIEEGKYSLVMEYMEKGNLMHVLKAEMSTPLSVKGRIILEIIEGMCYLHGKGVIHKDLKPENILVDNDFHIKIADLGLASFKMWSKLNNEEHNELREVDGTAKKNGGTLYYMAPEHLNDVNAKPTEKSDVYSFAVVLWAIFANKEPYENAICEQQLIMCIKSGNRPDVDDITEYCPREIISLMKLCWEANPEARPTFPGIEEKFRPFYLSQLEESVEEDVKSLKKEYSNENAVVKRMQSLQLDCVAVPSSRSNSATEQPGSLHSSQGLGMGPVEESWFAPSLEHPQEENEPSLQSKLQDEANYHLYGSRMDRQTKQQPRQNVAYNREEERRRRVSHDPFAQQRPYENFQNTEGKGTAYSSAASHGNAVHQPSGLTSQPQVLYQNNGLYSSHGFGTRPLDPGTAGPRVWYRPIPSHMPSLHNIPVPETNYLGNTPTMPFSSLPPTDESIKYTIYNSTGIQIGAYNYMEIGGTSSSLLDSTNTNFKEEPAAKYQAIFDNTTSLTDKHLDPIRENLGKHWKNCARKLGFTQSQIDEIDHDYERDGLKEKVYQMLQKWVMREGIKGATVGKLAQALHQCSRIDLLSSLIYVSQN
The assay can be described thus: ADP-Glo Kinase Assay. Here is the method:
In order to measure RIPK1 activity the ADP-Glo kinase assay (Promega, Catalog #V7002) was used to measure the conversion of ATP to ADP. […] Stock solutions of the test compounds were prepared in 100% DMSO (Sigma, Catalog #D2650) and serially diluted 1:3 using 100% DMSO. Compounds were additionally diluted 1:40 in assay buffer, and 2 μL/well were transferred to the assay plate. 4 μL/well (final concentration of 5 nM) of RIPK1 protein (SignalChem, Catalog #R07-1IG-05) diluted in assay buffer and added to the assay plate followed by a 10 minute preincutation at rt. 4 μL/well of ATP (Promega, Catalog #V7002) (final concentration of 50 μM) diluted in assay buffer were then added to the assay plate followed by a 6 h reaction time. Final concentrations of RIPK1 and ATP refer to a 10 μL volume. Luminescence was measured using a BioTek Synergy™ NEO plate reader. IC50 values were calculated using a four-parameter logistic curve fit using Genedata Screener software.

In general, IC50 refers to the concentration that inhibits the measured activity by half. Regarding `O=C(N1N=CCC1c1cc(F)cc(F)c1)C12CC(Cn3ncc4ncccc43)(C1)C2` (stereo unspecified) [US20250214942, Example 148], the IC50 turned out to be 80 nM.
